Measurements as given in patent publication US8703805B2 (Exelixis Patent Company LLC, priority 2005, dated 2014).

The compounds below were run on LXRα and/or LXRβ (assay: LXR/LXRE co-transfection assay (luciferase reporter, CV-1 cells)). Conditions: IC50 or EC50 for LXR (LXRα and/or LXRβ, not distinguished), tested as described in Example 109, CV-1 cells.
Assay type: cell-based, human
Excerpt: To measure the ability of compounds to activate or inhibit the transcriptional activity of LXR in a cell based assay, the co-transfection assay was used. It has been shown that LXR functions as a heterodimer with RXR. For the co-transfection assay; expression plasmids for LXR and RXR are introduced via transient transfection into mammalian cells along with a luciferase reporter plasmid that contains one copy of a DNA sequence that is bound by LXR-RXR heterodimers (LXRE; Willy, P. ad. 1995). Treatment of transfected cells with an LXR agonist increases the transcriptional activity of LXR, which is measured by an increase in luciferase activity.
CV-1 African Green Monkey Kidney Cells Co-transfection expression plasmids, comprising full-length LXRα (pCMX-h LXRα, LXRβ (pCMX-hLXRβ), or RXRα (pCMX-RXR), reporter plasmid (LXREx1-Tk-Luciferase), and control (pCMX-Galactosidase expression vector) (Willey et al. Genes & Development 91033-1045 (1995)). Transfection reagent such as FuGENE6 (Roche). 1× Cell lysis buffer (1% Triton X 100 (IT Baker X200-07), 10% Glycerol (JT Baker M778-07), 5 mM Ditriotreitol (Quantum Bioprobe DTT03; add fresh before lysing), 1 mM EGTA (Ethylene Glycol-bis(B-Amino ethyl ether)-N,N,N′,N′-Tetracetic Acid) (Sigma E-4378), 25 mM Tricine (ICN 807420) pH 7.8) 1× Luciferase assay buffer (pH at 7.8) (0.73 mM ATP, 22.3 mM Tricine, 0.11 mM EDTA, 33.3 mM DTT) 1× Luciferrin/CoA (11 mM Luciferin, 3.05 mM Coenzyme A, 10 mM HEPES) Preparation of Screening Reagents
CV-1 cells were prepared 24 hours prior to the experiment by plating them into T-175 flasks or 500 cm^2 dishes in order to achieve 70-80% confluency on the day of the transfection. The number of cells to be transfected was determined by the number of plates to be screened. each 384 well plate requires 1.92×10^6 cells or 5000 cells per well. DNA Transfection Reagent was prepared by mixing the required plasmid DNAs with a cationic lipid transfection reagent FuGENE6 (Roche) by following the instructions provided with the reagents. Optimal DNA amounts were determined empirically per cell line and size of vessel to be transfected. 10-12 mL of media was added to the DNA Transfection Reagent and this mixture was added to the cells after aspirating media from the T175 cm^2 flask. Cells were then incubated at least 5 hours at 37° C. to prepare screening cells.
Luciferase assay reagent was prepared by combining before use (per 10 mL): […], 0.54 mL of 1× Luciferrin/CoA; 0.54 mL of 0.2 M Magnesium sulfate
Assay plates were prepared by dispensing 5 μL of compound per well of a 384 well plate to achieve final compound concentration of 10 μM and no more than 1% DMSO. Media was removed from the screening cells, the cells trypsinized, harvested cells by centrifugation, counted, and plated at a density of approximately 5000 cells per well in the 384 well assay plate prepared above in a volume of about 45 μL. Assay plates containing both compounds and screening cells (50 μL in total volume) were incubated for 20 hours at 37° C.
After incubation with compounds, media was removed from the cells and lysis buffer (30 μL/well) added. After 30 minutes at ambient temperature, luciferase assay buffer (30 μL/well) was added and the assay plates read on a luminometer (PE Biosystems Northstar reader with on-board injectors, or equivalent). Plates were read immediately after addition of luciferase assay buffer.
The LXR/LXRE co-transfection assay can be used to establish the EC50/IC50 values for potency and percent activity or inhibition for efficacy. Efficacy defines the activity of a compound relative to a high control ((N-(3-((4-fluorophenyl)-(naphthalene-2-sulfonyl)amino)propyl)-2,2-dimethylpropionamide)) or a low control (DMSO/vehicle). The dose response curves are generated from an 8 point curve with concentrations differing by ½ LOG units. each point represents the average of 4 wells of data from a 384 well plate. […]
For CC(O)(c1cc(-c2ccc(-c3cccc(S(C)(=O)=O)c3)s2)n(-c2ccccc2Cl)n1)C(F)(F)F (centres unmarked) [Example 1181, 2-[1-(2-chlorophenyl)-5-{5-[3-(methylsulfonyl)phenyl]-2-thienyl}-1H-pyrazol-3-yl]-1,1,1-trifluoropropan-2-ol], the EC50 was < 1000 nM.
In the case of CCC(=O)c1cc(-c2ccc(-c3cccc(S(C)(=O)=O)c3)s2)n(-c2ccccc2Cl)n1 [Example 1173, 1-[1-(2-chlorophenyl)-5-{5-[3-(methylsulfonyl)phenyl]-2-thienyl}-1H-pyrazol-3-yl]propan-1-one], the EC50 is reported as < 1000 nM.
CCc1ccccc1-n1nc(C(C)(C)O)c(Cl)c1-c1ccc(-c2cccc(S(C)(=O)=O)c2)s1 [Example 1373, 2-[4-chloro-1-(2-ethylphenyl)-5-{5-[3-(methylsulfonyl)phenyl]-2-thienyl}-1H-pyrazol-3-yl]propan-2-ol] was tested, and the EC50 was < 1000 nM.
For CC(C)(O)c1cccc(-c2ccc(-c3cc(C(F)(F)F)nn3-c3ccccc3Cl)s2)c1 [Example 1240, 2-(3-{5-[1-(2-chlorophenyl)-3-(trifluoromethyl)-1H-pyrazol-5-yl]-2-thienyl}phenyl)propan-2-ol], the EC50 was < 1000 nM.
Work on CS(=O)(=O)CCN1CCN(C(=O)c2ccc(-c3cc(C(F)(F)F)nn3-c3ccccc3Cl)cc2)CC1 [Example 1365, 1-({4-[1-(2-chlorophenyl)-3-(trifluoromethyl)-1H-pyrazol-5-yl]phenyl}carbonyl)-4-[2-(methylsulfonyl)ethyl]piperazine] yielded an EC50 of 1000 to 10000 nM.
CS(=O)(=O)c1cccc(-c2ccc(-c3cc(C(F)(F)F)nn3-c3ccccc3S(N)(=O)=O)s2)c1 [Example 1131, 2-[5-{5-[3-(methylsulfonyl)phenyl]-2-thienyl}-3-(trifluoromethyl)-1H-pyrazol-1-yl]benzenesulfonamide] was tested, and the EC50 was < 1000 nM.
CC(C)(O)c1cc(-c2ccc(-c3ccc4[nH]ccc4c3)cc2)n(-c2ccccc2Cl)n1 [Example 1283, 2-{1-(2-chlorophenyl)-5-[4-(1H-indol-5-yl)phenyl]-1H-pyrazol-3-yl}propan-2-ol] was tested, and the EC50 was 1000 to 10000 nM.
In the case of CCS(=O)(=O)c1cccc(-c2ccc(-c3cc(C(C)(C)C#N)nn3-c3ccccc3Cl)s2)c1 [Example 1180, 2-[1-(2-chlorophenyl)-5-{5-[3-(ethylsulfonyl)phenyl]-2-thienyl}-1H-pyrazol-3-yl]-2-methylpropanenitrile], the EC50 is reported as < 1000 nM.
For CCS(=O)(=O)c1cccc(-c2ccc(-c3cc(C(C)(C)C(=O)O)nn3-c3ccccc3Cl)s2)c1 [Example 1302, 2-[1-(2-chlorophenyl)-5-{5-[3-(ethylsulfonyl)phenyl]-2-thienyl}-1H-pyrazol-3-yl]-2-methylpropanoic acid], the EC50 was 1000 to 10000 nM.
With CC(C)(O)c1nn(-c2ccccc2Cl)c(-c2ccc(-c3cccc(S(C)(=O)=O)c3)s2)c1Cl [Example 1294, 2-[4-chloro-1-(2-chlorophenyl)-5-{5-[3-(methylsulfonyl)phenyl]-2-thienyl}-1H-pyrazol-3-yl]propan-2-ol] the EC50 was < 1000 nM.
In the case of CC(C)(O)c1cc(-c2ccc(C(=O)N3CCC3)cc2)n(-c2ccccc2Cl)n1 [Example 80], the EC50 is reported as > 10000 nM.
CC(C)(CN)c1cc(-c2ccc(-c3cccc(S(C)(=O)=O)c3)s2)n(-c2ccccc2Cl)n1 [Example 1192, 2-[1-(2-chlorophenyl)-5-{5-[3-(methylsulfonyl)phenyl]-2-thienyl}-1H-pyrazol-3-yl]-2-methylpropan-1-amine] was tested, and the EC50 was < 1000 nM.
With CC(C)(c1cc(-c2ccc(-c3cccc(S(C)(=O)=O)c3)s2)n(-c2ccccc2Cl)n1)N1CCOCC1 [Example 1159, 4-{1-[1-(2-chlorophenyl)-5-{5-[3-(methylsulfonyl)phenyl]-2-thienyl}-1H-pyrazol-3-yl]-1-methylethyl}morpholine] the EC50 was < 1000 nM.
CC(C)(O)c1cc(-c2ccccc2Cl)n(-c2ccc(-c3cccc(S(C)(=O)=O)c3)nc2)n1 [Example 1246, 2-[5-(2-chlorophenyl)-1-(6-[3-(methylsulfonyl)phenyl]pyridin-3-yl}-1H-pyrazol-3-yl]propan-2-ol] gave an EC50 of 1000 to 10000 nM.
